Paper PMC12277590 (Drug Design, Development and Therapy, 2025)
pIC50: −log10 of the molar value. Where two headings read alike, the source gives them in different places.

What was measured:
[1] = assay type: in vivo, male Sprague-Dawley rats; conditions: rats
[2] = cited from earlier work
plasma proteins = conditions: cited from earlier work
[3] = oral intake in human; cited from earlier work
UGT1A3 = conditions: ref 14; cited from earlier work
human UGT1A9 = conditions: ref 14; cited from earlier work
human UGT1A1 = conditions: ref 14; cited from earlier work
MRP2 = conditions: read-out: IC50, MRP2; cited from earlier work
P-gp = conditions: read-out: IC50, P-gp; cited from earlier work
BCRP = conditions: read-out: IC50, BCRP; cited from earlier work
CYP2C19 = conditions: in vitro; cited from earlier work
[4] = cited from earlier work; remark: listed apart in the source
[5] = markedly low water solubility and high permeability; cited from earlier work
[6] = after multiple doses of telmisartan vs donafenib alone
[7] = after multiple doses of telmisartan vs sorafenib alone
[8] = oral sorafenib in humans, mass balance
[9] = after multiple doses of donafenib vs telmisartan alone

[2H]C([2H])([2H])NC(=O)c1cc(Oc2ccc(NC(=O)Nc3ccc(Cl)c(C(F)(F)F)c3)cc2)ccn1 [Donafenib]
decrease in t1/2 of donafenib [1, 6]: 35.0% | increase in CLz/F of donafenib [1, 6]: 87.5% | N-oxidation (M2), % of total drug ([2]; ref 41): 24.76% | glucuronidation (M7), % of total drug ([2]; ref 41): 4.82%

CNC(=O)c1cc(Oc2ccc(NC(=O)Nc3ccc(Cl)c(C(F)(F)F)c3)cc2)ccn1 [Sorafenib]
decrease in CLz/F of sorafenib [1, 7]: 46.0% | decrease in Vz/F of sorafenib [1, 7]: 50.4% | increase in AUC0-t of sorafenib [1, 7]: 77.7% | increase in AUC0-∞ of sorafenib [1, 7]: 75.8% | increase in Cmax of sorafenib [1, 7]: 60.9% | binding to plasma proteins (plasma proteins; sorafenib, human): more than 99% | drug eliminated as oxidative metabolites [2, 8]: less than 5% | drug eliminated as sorafenib-β-D-glucuronide (SG) [2, 8]: 15% | time to maximum plasma concentration [3]: about 3 hours | inhibitory effects on UGT1A3 (UGT1A3): no inhibitory effects | inhibition of human UGT1A9 (human UGT1A9): potent inhibitor | inhibition of human UGT1A1 (human UGT1A1): potent inhibitor

CCCc1nc2c(C)cc(-c3nc4ccccc4n3C)cc2n1Cc1ccc(-c2ccccc2C(=O)O)cc1 [Telmisartan]
pIC50 (MRP2): 4.42 | pIC50 (P-gp): 4.91 | pIC50 (BCRP): 5.17 | decrease in CLz/F of telmisartan [1, 9]: 57.3% | decrease in Vz/F of telmisartan [1, 9]: 45.6% | increase in AUC0-∞ of telmisartan [1, 9]: 0.98 fold | effect of sorafenib on the pharmacokinetic parameters of telmisartan ([1]; multiple doses of sorafenib vs telmisartan alone): does not significantly affect | binding to plasma proteins (plasma proteins; telmisartan): 99.5% | inhibition of CYP2C19 (CYP2C19): minor inhibition | proportion metabolized to acyl-glucuronides by UGT1A3 ([4]; ref 25,27): 11% | half-life for elimination ([4]; ref 26): about 24 hours | proportion metabolized to acyl-glucuronides by UGT1A3 ([4]; ref 34): 11% | BCS class [5]: class II
